Measured values reported in ChEMBL document CHEMBL5214919, “Discovery of Novel BRD4 Ligand Scaffolds by Automated Navigation of the Fragment Chemical Space” (J Med Chem, 2021).

molecular target: T1, Bromodomain-containing protein 4 (Homo sapiens, UniProt O60885); experiment: Binding affinity to BRD4 (unknown origin) expressed in Escherichia coli BL21 (DE3) assessed as thermal stabilization at 10 uM by SYPRO orange dye based DSF assay

Row | ΔTm | SMILES
1 | 0.9 °C | Cc1n[nH]c2nnc(N)c-2c1C
2 | 0.8 °C | Cc1cc(Cl)ccc1O[C@H](C)c1nnc(N)s1
3 | 1.8 °C | Cc1cc(SCc2c(C)noc2C)ncn1
4 | 3.1 °C | Nc1noc2c1c(=O)[nH]c1ccccc12
5 | 2.9 °C | Cc1nnc2n1C[C@@H](NC(=O)Cn1cnnn1)CC2
6 | 3.3 °C | CCc1nnc2scc(-c3ccccc3)n12
7 | 2.4 °C | Oc1ccc(Cl)cc1Nc1ncnc2nc[nH]c12
8 | 3.4 °C | Cc1nc(C#N)c(NCc2csnn2)o1
9 | 0.9 °C | CCCc1nnc(NC(=O)c2c(C)noc2C)s1
10 | 1.6 °C | COc1cccc(Cc2nnc(N)s2)c1
11 | 4.55 °C | Cc1noc(N)c1-c1ccccc1
12 | 0.9 °C | COc1ccc(CNC(=O)CSc2nnc(N)s2)cc1
13 | 2.6 °C | Cc1nonc1-c1cc2ccccc2[nH]1

molecular target: T1, Bromodomain-containing protein 4; experiment: Inhibition of BRD4 (unknown origin) expressed in Escherichia coli BL21 (DE3) using [Lys(Ac)5/8/12/16]-histone H4 (1 to 21residues)-GGK as substrate incubated for 30 mins by TR-FRET assay

Row | IC50 | SMILES
14 | 79 µM | Cc1cc(Cl)ccc1O[C@H](C)c1nnc(N)s1
15 | 30 µM | Cc1cc(SCc2c(C)noc2C)ncn1
16 | 491 µM | Oc1ccc(Cl)cc1Nc1ncnc2nc[nH]c12
17 | 86 µM | Cc1noc(C)c1C(=O)Nc1nnc(C2CC2)s1
18 | 91 µM | Cc1noc(N)c1-c1ccccc1
19 | 191 µM | Cc1noc(C)c1CSc1nnc(C)n1N
20 | 644 µM | Oc1ccccc1-n1c(O)nnc1S
